# Measurements: patent US20250144067A1, “PERSONALIZED STARVATION THERAPY FOR CANCER” (Faeth Therapeutics, Inc., priority 2021, published 2025)
# Structures can show the parent of a compound that is named as a salt. Where two headings read alike, the source gives them in different places.
# Experiments:
# [1] = test system: NCI-H292 lung cancer cells; assay: FDA drug screening, complete media vs cholesterol-free media without statin (TABLE 1); assay type: cell-based, human
# [2] = test system: NCI-H292 lung cancer cells; assay: FDA drug screening, complete media vs cholesterol-free media with simvastatin (TABLE 2); assay type: cell-based, human
# [3] = NCI-H292 cells, cholesterol-free media without statin, FDA drug library screen
# [4] = NCI-H292 cells, complete media, FDA drug library screen
# [5] = complete vs cholesterol-free media, >0 enhanced anti-cancer activity, about 0 neutral, <0 antagonist
# [6] = NCI-H292 cells, FDA drug library screen, cholesterol-free media with simvastatin 0.04 μM
# [7] = NCI-H292 cells, FDA drug library screen, complete media
# [8] = complete media minus cholesterol-free media + simvastatin, >0 enhanced anti-cancer activity, about 0 neutral, <0 antagonist
# [9] = Complete minus Cholesterol-free, >0 enhanced anti-cancer activity, about 0 neutral, <0 antagonist
# [10] = NCI-H292 cells, cholesterol-free media without statin
# [11] = complete media vs cholesterol-free media + simvastatin (0.04 μM), >0 enhanced anti-cancer activity, about 0 neutral, <0 antagonist
# [12] = NCI-H292 cells, FDA library drug in cholesterol-free media with simvastatin 0.04 μM
# [13] = NCI-H292 cells, FDA library drug in complete media
# [14] = Complete minus Cholesterol-free, greater than 0 enhanced anti-cancer activity, about 0 neutral, below 0 antagonists
# [15] = NCI-H292 cells in cholesterol-free media without statin
# [16] = NCI-H292 cells in complete media
# [17] = NCI-H292 cells, cholesterol-free media with simvastatin 0.04 μM, FDA drug library screen (TABLE 2)
# [18] = NCI-H292 cells, complete media, FDA drug library screen (TABLE 2)
# [19] = complete media minus cholesterol-free media + simvastatin (0.04 μM), >0 enhanced anti-cancer activity, about 0 neutral, <0 antagonist
# [20] = NCI-H292 cells, FDA drug library screen, cholesterol-free media without statin
# [21] = NCI-H292 cells, cholesterol-free media with simvastatin 0.04 μM, cell growth value in FDA drug screen
# [22] = NCI-H292 cells, complete media, cell growth value in FDA drug screen
# [23] = complete vs cholesterol-free media, greater than 0 enhanced anti-cancer activity, about 0 neutral, below 0 antagonists
# [24] = NCI-H292 cells, drug in cholesterol-free media with simvastatin 0.04 μM
# [25] = NCI-H292 cells, drug in complete media
# [26] = Complete minus Cholesterol-free, […]
compound,measurement,setting,value
C[S+](CC[C@H](N)C(=O)O)C[C@H]1O[C@@H](n2cnc3c(N)ncnc32)[C@H](O)[C@@H]1O.Cc1ccc(S(=O)(=O)[O-])cc1 (stereo partly drawn) [S-Adenosyl-L-methionine (tosylate)],Cholesterol-free,[1]; [3],0.8583
same,Complete,[1]; [4],1.043
same,Difference,[1]; [5],0.19
same,Cholesterol-free media + simvastatin (0.04 μM),[2]; [6],1.239
same,Complete Media,[2]; [7],1.842
same,Difference,[2]; [8],0.60
Cc1ccc(NC(=O)c2ccc(CN3CCN(C)CC3)cc2)cc1Nc1nc(-c2cccnc2)cs1 [Masitinib],Difference,[1]; [9],−0.19
same,Cholesterol-free,[1]; [10],0.8775
same,Complete,"[1]; NCI-H292 cells, complete media",0.6881
same,Cholesterol-free media + simvastatin (0.04 μM),[2]; [6],0.9334
same,Complete Media,[2]; [7],0.8067
same,Difference,[2]; [11],−0.13
Verteporfin,Difference,[1]; [9],−0.04
same,Cholesterol-free,[1]; [3],0.26
same,Complete,[1]; [4],0.2188
same,Cholesterol-free media + simvastatin (0.04 μM),[2]; [6],0.616
same,Complete Media,[2]; [7],0.9298
same,Difference,[2]; [8],0.31
CO/N=C(\C(=O)N[C@@H]1C(=O)N2C(C(=O)[O-])=C(C[n+]3ccn4ncccc43)CS[C@H]12)c1nsc(N)n1 [Cefozopran (hydrochloride)],Difference,[1]; [9],−0.04
same,Cholesterol-free,[1]; [3],1.014
same,Complete,[1]; [4],0.9759
same,Cholesterol-free media + simvastatin (0.04 μM),[2]; [12],1.89
same,Complete Media,[2]; [13],1.537
same,Difference,[2]; [11],−0.35
CC1=NN(c2ccc(C)c(C)c2)C(=O)/C1=N\Nc1cccc(-c2cccc(C(=O)O)c2)c1O [Eltrombopag],Difference,[1]; [9],−0.30
same,Cholesterol-free,[1]; [10],1.47
same,Cholesterol-free media + simvastatin (0.04 μM),[2]; [6],1.011
same,Complete Media,[2]; [7],0.868
same,Difference,[2]; [11],−0.14
NC(=O)Cc1cccc(C(=O)c2ccccc2)c1N [Nepafenac],Difference,[1]; [14],−0.71
same,Cholesterol-free,[1]; [15],1.612
same,Complete,[1]; [16],0.8984
same,Cholesterol-free media + simvastatin (0.04 μM),[2]; [17],1.737
same,Complete Media,[2]; [18],1.699
same,Difference,[2]; [19],−0.04
COc1ccc2c(c1)N(C[C@H](C)CN(C)C)c1ccccc1S2 [Levomepromazine],Difference,[1]; [9],0.01
same,Cholesterol-free,[1]; [3],0.8962
same,Complete,[1]; [4],0.9041
same,Cholesterol-free media + simvastatin (0.04 μM),[2]; [6],0.8554
same,Complete Media,[2]; [7],1.084
same,Difference,[2]; [8],0.23
Solifenacin (Succinate),Cholesterol-free,[1],1.612
same,Complete,[1],1.244
same,Difference,[1],−0.37
same,Cholesterol-free media + simvastatin (0.04 μM),[2],0.8847
same,Complete Media,[2],0.7655
same,Difference,[2],−0.12
CCOC(=O)c1c(N)sc2c1CCN(Cc1ccccc1)C2 [Tinoridine hydrochloride],Difference,"[1]; Complete minus Cholesterol-free, greater than 0 enhanced anti-cancer activity, about 0 neutral, below 0 antagonist",−0.11
same,Cholesterol-free,[1]; [20],1.153
same,Complete,[1]; [7],1.039
same,Cholesterol-free media + simvastatin (0.04 μM),[2]; [21],1.034
same,Complete Media,[2]; [22],1.059
same,Difference,[2]; [8],0.03
CNCCC=C1c2ccccc2CCc2ccccc21 [Nortriptyline (hydrochloride)],Cholesterol-free,[1]; [10],1.336
same,Complete,"[1]; NCI-H292 cells, complete media",1.01
same,Difference,[1]; [23],−0.33
same,Cholesterol-free media + simvastatin (0.04 μM),[2]; [24],1.16
same,Complete Media,[2]; [25],0.9078
same,Difference,[2]; [11],−0.25
CCCOc1ccc(S(=O)(=O)N2CCN(CCO)CC2)cc1-c1nc2c(CCC)cn(CC)c2c(=O)[nH]1 [Mirodenafil (dihydrochloride)],Difference,[1]; [9],−0.27
same,Cholesterol-free,[1]; [10],1.435
same,Cholesterol-free media + simvastatin (0.04 μM),[2]; [6],0.7461
same,Complete Media,[2]; [7],0.9273
same,Difference,[2]; [8],0.18
CCCCCCNC(=O)n1cc(F)c(=O)[nH]c1=O [Carmofur],Cholesterol-free,[1]; [10],0.5487
same,Complete,"[1]; NCI-H292 cells, complete media",0.2009
same,Difference,[1]; [23],−0.35
same,Cholesterol-free media + simvastatin (0.04 μM),[2]; [24],0.7692
same,Complete Media,[2]; [25],0.6005
same,Difference,[2]; [11],−0.17
Nc1ccc(O)c(C(=O)O)c1 [5-Aminosalicylic Acid],Cholesterol-free,[1]; [10],1.21
same,Complete,"[1]; NCI-H292 cells, complete media",0.8775
same,Difference,[1]; [23],−0.33
same,Cholesterol-free media + simvastatin (0.04 μM),[2]; [24],1.224
same,Complete Media,[2]; [25],1.016
same,Difference,[2]; [11],−0.21
Fc1ccc(C(c2ccc(F)cc2)N2CCN(C/C=C/c3ccccc3)CC2)cc1 [Flunarizine (dihydrochloride)],Difference,[1]; [9],0.07
same,Cholesterol-free,[1]; [3],0.971
same,Complete,[1]; [4],1.036
same,Cholesterol-free media + simvastatin (0.04 μM),[2]; [21],0.8172
same,Complete Media,[2]; [22],0.8617
same,Difference,[2]; [8],0.04
Cc1ccc(C(=O)c2ccc(CC(=O)O)n2C)cc1 [Tolmetin (sodium dihydrate)],Cholesterol-free,[1]; [3],0.7023
same,Complete,[1]; [4],1.262
same,Difference,[1]; [5],0.56
same,Cholesterol-free media + simvastatin (0.04 μM),[2]; [12],1.295
same,Complete Media,[2]; [13],0.94
same,Difference,[2]; [11],−0.35
O=C(O)[C@H](CC(=O)N1C[C@H]2CCCC[C@H]2C1)Cc1ccccc1 [Mitiglinide (Calcium)],Difference,[1]; [14],−0.81
same,Cholesterol-free,[1]; [15],1.668
same,Complete,[1]; [16],0.8559
same,Cholesterol-free media + simvastatin (0.04 μM),[2]; [24],1.855
same,Complete Media,[2]; [25],1.594
same,Difference,[2]; [11],−0.26
Cc1ccc(Sc2ccccc2N2CCNCC2)c(C)c1 [Vortioxetine (hydrobromide)],Difference,[1]; [9],−0.30
same,Cholesterol-free,[1]; [10],0.7215
same,Complete,"[1]; NCI-H292 cells, complete media",0.4184
same,Cholesterol-free media + simvastatin (0.04 μM),[2]; [12],1.363
same,Complete Media,[2]; [13],1.083
same,Difference,[2]; [11],−0.28
CCOc1ccccc1C(N)=O [2-Ethoxybenzamide],Difference,[1]; [9],−0.07
same,Cholesterol-free,[1]; [3],1.024
same,Complete,[1]; [4],0.9559
same,Cholesterol-free media + simvastatin (0.04 μM),[2]; [6],1.119
same,Complete Media,[2]; [7],0.9754
same,Difference,[2]; [11],−0.14
COc1cc(NCc2ccc3nc(N)nc(N)c3c2C)cc(OC)c1OC [Trimetrexate],Difference,[1]; [9],−0.04
same,Cholesterol-free,[1]; [3],0.1317
same,Complete,[1]; [4],0.09583
same,Cholesterol-free media + simvastatin (0.04 μM),[2]; [6],0.2201
same,Complete Media,[2]; [7],0.1203
same,Difference,[2]; [11],−0.10
C=CC1=C(C(=O)O)N2C(=O)[C@@H](NC(=O)/C(=N\O)c3csc(N)n3)[C@H]2SC1 [Cefdinir],Difference,[1]; [9],−0.24
same,Cholesterol-free,[1]; [10],1.244
same,Complete,"[1]; NCI-H292 cells, complete media",0.9998
same,Cholesterol-free media + simvastatin (0.04 μM),[2]; [24],1.206
same,Complete Media,[2]; [25],0.987
same,Difference,[2]; [11],−0.22
COC(=O)Nc1nc2ccc(C(=O)c3ccccc3)cc2[nH]1 [Mebendazole],Cholesterol-free,[1]; [3],0.1458
same,Complete,[1]; [4],0.3848
same,Difference,[1]; [5],0.24
same,Cholesterol-free media + simvastatin (0.04 μM),[2]; [21],0.4675
same,Complete Media,[2]; [22],0.5846
same,Difference,[2]; [8],0.12
O.O.O.O.O.O.O.O=C1N=C([O-])CN1/N=C/c1ccc(-c2ccc([N+](=O)[O-])cc2)o1.O=C1N=C([O-])CN1/N=C/c1ccc(-c2ccc([N+](=O)[O-])cc2)o1.[Na+].[Na+] [Dantrolene (sodium hemiheptahydrate)],Cholesterol-free,[1]; [10],1.274
same,Complete,"[1]; NCI-H292 cells, complete media",0.9468
same,Difference,[1]; [23],−0.33
same,Cholesterol-free media + simvastatin (0.04 μM),[2]; [12],1.565
same,Complete Media,[2]; [13],1.218
same,Difference,[2]; [11],−0.35
Cl.Cl.NCCc1c[nH]cn1 [Histamine (dihydrochloride)],Cholesterol-free,[1],1.708
same,Complete,[1],1.081
same,Difference,[1],−0.63
same,Cholesterol-free media + simvastatin (0.04 μM),[2],0.9209
same,Complete Media,[2],0.9238
same,Difference,[2],0.00
COc1nc2ccc(Br)cc2cc1[C@@H](c1ccccc1)[C@@](O)(CCN(C)C)c1cccc2ccccc12 [Bedaquiline],Cholesterol-free,[1]; [3],0.6087
same,Complete,[1]; [4],1.472
same,Difference,[1]; [5],0.86
same,Cholesterol-free media + simvastatin (0.04 μM),[2]; [21],1.492
same,Complete Media,[2]; [22],1.59
same,Difference,[2]; [8],0.10
NS(=O)(=O)c1cc(C(=O)O)c(NCc2ccco2)cc1Cl [Furosemide],Cholesterol-free media + simvastatin (0.04 μM),[2]; [24],1.11
same,Complete Media,[2]; [25],0.894
same,Difference,[2]; [11],−0.22
CC(C)Cc1ccc([C@@H](C)C(=O)O)cc1 [(R)-(—)-Ibuprofen],Difference,[1]; [14],−0.96
same,Cholesterol-free,[1]; [15],1.742
same,Complete,[1]; [16],0.7774
CC(C)Cc1ccc([C@@H](C)C(=O)O)cc1 [(R)-(−)-Ibuprofen],Difference,[2]; [19],0.01
CCN(CC)C(=O)C1(c2ccccc2)CC1CN.Cl (stereo not drawn) [Milnacipran ((1S-cis) hydrochloride)],Cholesterol-free media + simvastatin (0.04 μM),[2]; [6],0.9487
same,Complete Media,[2]; [7],0.8731
same,Difference,"[2]; complete media vs cholesterol-free media + simvastatin (0.04 μM), […]",−0.08
Dihydroergotoxine (mesylate),Cholesterol-free media + simvastatin (0.04 μM),[2]; [17],0.9089
same,Complete Media,[2]; [18],0.9065
same,Difference,"[2]; complete media minus cholesterol-free media + simvastatin (0.04 μM), […]",0.00
Escin,Difference,[1]; [26],−0.22
same,Cholesterol-free,[1]; [10],1.276
CCN(CC)C(=O)C1(c2ccccc2)CC1CN.Cl (stereo not drawn) [Milnacipran ((1S-cis)hydrochloride)],Difference,[1]; [26],−0.18
same,Cholesterol-free,[1]; [20],1.07
same,Complete,[1]; [7],0.894
γ-Oryzanol,Complete Media,[2]; [7],1.39
same,Difference,"[2]; complete media minus cholesterol-free media + simvastatin, […]",0.24
NS(=O)(=O)c1cc(C(=O)O)c(NCc2ccco2)cc1Cl [Furosemide (sodium)],Cholesterol-free media + simvastatin (0.04 μM),[2]; [17],1.074
same,Complete Media,[2]; [18],1.02
same,Difference,[2]; [19],−0.05
